In paper PMC6199744, “Development of Chemical Proteomics for the Folateome and Analysis of the Kinetoplastid Folateome” (ACS Infectious Diseases, 2018):
Where two headings read alike, the source gives them in different places.

Tests used:
Type in all cases: binding
[1] = target: T1, HeLa cell extract proteins (Homo sapiens, UniProt O95487)
T1 construct: endogenous in cells; host or cells: HeLa cell extract
T1 sequence (O95487 1-1268): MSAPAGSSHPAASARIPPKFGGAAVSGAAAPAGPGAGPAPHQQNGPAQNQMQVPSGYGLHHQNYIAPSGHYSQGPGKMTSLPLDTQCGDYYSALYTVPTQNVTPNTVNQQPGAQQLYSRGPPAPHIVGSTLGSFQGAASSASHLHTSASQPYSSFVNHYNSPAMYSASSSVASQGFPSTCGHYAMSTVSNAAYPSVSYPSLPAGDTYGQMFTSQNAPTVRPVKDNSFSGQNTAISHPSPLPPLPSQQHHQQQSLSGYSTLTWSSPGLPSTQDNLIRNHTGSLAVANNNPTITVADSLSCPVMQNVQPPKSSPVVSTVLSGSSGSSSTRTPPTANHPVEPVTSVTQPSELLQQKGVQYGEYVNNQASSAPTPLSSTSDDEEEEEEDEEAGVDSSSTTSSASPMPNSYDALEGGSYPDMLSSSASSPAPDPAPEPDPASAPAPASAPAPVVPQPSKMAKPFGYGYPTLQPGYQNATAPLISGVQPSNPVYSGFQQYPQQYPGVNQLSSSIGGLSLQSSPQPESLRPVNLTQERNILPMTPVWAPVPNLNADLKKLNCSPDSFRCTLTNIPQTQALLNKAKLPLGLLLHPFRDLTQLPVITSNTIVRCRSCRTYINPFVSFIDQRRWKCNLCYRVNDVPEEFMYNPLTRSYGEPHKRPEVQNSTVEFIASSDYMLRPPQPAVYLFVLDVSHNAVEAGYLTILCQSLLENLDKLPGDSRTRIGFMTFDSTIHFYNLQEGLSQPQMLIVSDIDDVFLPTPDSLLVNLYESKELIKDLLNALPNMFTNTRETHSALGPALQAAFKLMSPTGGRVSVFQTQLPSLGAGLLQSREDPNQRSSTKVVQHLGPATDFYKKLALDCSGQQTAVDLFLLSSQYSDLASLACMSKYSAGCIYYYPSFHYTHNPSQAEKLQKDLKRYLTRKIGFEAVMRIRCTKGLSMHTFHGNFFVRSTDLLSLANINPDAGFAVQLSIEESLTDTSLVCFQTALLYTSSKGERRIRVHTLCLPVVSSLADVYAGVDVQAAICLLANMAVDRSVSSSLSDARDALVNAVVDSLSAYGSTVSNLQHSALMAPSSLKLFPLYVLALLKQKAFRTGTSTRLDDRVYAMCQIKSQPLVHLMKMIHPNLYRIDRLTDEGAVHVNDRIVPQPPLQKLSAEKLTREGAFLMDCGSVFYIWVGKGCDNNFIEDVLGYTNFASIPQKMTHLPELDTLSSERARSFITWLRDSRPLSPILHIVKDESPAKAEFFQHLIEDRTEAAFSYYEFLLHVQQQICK

[2] = target: T2, HeLa cell extract proteins (Homo sapiens, UniProt Q15293)
T2 construct: endogenous in cells; host or cells: HeLa cell extract
T2 sequence (Q15293 30-331): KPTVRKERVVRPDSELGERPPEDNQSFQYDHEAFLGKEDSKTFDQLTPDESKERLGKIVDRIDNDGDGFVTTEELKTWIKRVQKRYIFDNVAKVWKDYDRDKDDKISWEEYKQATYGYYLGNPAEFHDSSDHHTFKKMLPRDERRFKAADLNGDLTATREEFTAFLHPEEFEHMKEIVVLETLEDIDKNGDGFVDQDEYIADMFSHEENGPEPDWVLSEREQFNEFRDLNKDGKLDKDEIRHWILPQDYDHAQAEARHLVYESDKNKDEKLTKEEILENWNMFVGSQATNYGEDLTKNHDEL

[3] = target: T3, HeLa cell extract proteins (Homo sapiens, UniProt Q7L8L6)
T3 construct: endogenous in cells; host or cells: HeLa cell extract
T3 sequence (Q7L8L6 28-764): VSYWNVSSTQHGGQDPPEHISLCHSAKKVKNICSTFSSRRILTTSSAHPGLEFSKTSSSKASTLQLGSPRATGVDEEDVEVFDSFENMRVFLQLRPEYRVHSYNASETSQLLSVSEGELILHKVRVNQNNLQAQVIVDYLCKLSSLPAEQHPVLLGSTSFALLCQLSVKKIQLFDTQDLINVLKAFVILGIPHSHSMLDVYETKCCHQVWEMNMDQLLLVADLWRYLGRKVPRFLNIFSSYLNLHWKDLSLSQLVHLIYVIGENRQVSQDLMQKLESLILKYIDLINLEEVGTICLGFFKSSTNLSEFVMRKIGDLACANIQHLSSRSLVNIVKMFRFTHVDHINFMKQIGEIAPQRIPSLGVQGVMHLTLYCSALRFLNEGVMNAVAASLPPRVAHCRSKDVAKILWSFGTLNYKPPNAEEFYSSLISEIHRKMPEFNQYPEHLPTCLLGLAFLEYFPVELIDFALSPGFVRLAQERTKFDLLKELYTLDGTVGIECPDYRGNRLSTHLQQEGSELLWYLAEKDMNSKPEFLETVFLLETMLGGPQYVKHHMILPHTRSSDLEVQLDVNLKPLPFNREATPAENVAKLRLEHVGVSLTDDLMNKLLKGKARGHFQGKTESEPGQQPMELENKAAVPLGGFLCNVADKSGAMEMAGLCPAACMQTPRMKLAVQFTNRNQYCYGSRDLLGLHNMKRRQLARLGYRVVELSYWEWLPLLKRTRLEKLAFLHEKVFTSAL

[4] = target: T4, HeLa cell extract proteins (Homo sapiens, UniProt Q8TEM1)
T4 construct: endogenous in cells; host or cells: HeLa cell extract

[5] = target: T5, HeLa cell extract proteins (Homo sapiens, UniProt Q9UII2)
T5 construct: endogenous in cells; host or cells: HeLa cell extract
T5 sequence (Q9UII2 26-106): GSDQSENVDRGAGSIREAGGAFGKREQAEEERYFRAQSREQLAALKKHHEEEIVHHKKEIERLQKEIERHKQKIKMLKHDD

[6] = target: T6, HeLa cell extract proteins (Homo sapiens, UniProt Q9Y679)
T6 construct: endogenous in cells; host or cells: HeLa cell extract
T6 sequence (Q9Y679 1-410): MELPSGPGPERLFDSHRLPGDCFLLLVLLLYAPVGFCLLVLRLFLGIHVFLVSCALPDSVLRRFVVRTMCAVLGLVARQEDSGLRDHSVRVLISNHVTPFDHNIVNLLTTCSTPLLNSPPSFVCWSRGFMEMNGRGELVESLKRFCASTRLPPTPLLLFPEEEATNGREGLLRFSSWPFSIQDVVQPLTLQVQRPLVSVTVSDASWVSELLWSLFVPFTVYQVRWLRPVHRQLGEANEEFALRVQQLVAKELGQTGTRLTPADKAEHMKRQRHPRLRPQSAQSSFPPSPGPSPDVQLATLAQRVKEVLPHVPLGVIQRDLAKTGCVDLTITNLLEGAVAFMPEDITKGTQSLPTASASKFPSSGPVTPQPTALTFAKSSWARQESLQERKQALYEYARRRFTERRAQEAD

T4 sequence (Q8TEM1 27-1887): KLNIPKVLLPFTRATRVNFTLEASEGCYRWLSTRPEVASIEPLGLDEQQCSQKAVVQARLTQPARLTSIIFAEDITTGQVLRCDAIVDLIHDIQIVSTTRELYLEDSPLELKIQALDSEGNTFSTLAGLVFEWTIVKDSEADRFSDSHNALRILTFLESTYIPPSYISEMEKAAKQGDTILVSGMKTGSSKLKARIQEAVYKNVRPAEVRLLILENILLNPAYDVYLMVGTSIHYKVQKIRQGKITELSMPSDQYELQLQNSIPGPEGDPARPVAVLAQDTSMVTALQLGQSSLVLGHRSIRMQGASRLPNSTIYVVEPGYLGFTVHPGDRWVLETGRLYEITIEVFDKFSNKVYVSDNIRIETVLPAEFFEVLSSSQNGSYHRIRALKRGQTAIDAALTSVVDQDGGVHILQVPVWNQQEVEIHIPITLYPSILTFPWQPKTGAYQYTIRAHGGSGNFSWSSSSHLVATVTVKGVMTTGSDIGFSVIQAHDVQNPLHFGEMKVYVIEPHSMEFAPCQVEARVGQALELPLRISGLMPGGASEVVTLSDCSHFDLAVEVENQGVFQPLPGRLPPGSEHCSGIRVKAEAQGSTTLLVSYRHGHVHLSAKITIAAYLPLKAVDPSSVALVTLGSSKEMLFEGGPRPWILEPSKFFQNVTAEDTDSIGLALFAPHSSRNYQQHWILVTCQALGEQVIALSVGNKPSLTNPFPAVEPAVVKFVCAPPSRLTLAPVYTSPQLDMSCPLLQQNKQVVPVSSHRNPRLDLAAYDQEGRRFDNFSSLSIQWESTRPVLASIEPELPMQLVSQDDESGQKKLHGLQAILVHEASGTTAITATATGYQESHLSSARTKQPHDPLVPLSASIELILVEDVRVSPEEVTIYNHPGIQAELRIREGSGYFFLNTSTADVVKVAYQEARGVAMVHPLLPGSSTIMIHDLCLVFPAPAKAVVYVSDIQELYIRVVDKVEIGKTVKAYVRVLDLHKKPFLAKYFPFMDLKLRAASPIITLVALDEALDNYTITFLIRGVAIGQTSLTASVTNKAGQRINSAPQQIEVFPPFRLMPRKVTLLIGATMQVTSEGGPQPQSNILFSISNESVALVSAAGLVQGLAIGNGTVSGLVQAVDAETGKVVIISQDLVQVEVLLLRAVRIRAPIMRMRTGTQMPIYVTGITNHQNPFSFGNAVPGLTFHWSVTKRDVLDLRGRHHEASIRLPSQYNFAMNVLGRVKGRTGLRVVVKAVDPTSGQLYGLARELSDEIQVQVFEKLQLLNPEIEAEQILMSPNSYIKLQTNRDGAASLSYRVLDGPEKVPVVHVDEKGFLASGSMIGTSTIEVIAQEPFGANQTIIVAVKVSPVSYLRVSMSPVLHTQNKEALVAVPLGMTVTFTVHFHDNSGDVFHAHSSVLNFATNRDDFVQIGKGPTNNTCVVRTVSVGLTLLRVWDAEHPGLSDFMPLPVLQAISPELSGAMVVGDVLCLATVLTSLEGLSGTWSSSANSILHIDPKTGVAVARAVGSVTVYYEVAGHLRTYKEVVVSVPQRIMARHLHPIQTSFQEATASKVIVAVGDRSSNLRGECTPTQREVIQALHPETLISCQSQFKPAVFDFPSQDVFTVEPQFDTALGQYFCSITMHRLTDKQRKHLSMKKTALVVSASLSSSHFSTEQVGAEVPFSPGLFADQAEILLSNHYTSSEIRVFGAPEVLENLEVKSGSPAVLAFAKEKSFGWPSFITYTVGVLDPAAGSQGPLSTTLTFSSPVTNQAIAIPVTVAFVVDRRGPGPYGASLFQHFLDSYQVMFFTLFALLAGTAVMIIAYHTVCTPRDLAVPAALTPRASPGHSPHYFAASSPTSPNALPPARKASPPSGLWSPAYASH

Nc1nc2c(c(=O)[nH]1)N(C=O)C(CNc1ccc(C(=O)N[C@@H](CCC(=O)O)C(=O)O)cc1)CN2 (stereo partly drawn) [LEU, leucovorin]
fold changes relative to vehicle control ([1]; HeLa, captured protein SEC24B): 1.06
fold changes relative to vehicle control ([2]; HeLa, protein RCN1): 0.91
fold changes relative to vehicle control ([3]; HeLa, protein FASTKD5): 0.87
fold changes relative to vehicle control ([4]; HeLa, captured protein NUP210): 0.97
fold changes relative to vehicle control ([5]; HeLa, protein ATPIF1): 1
fold changes relative to vehicle control ([6]; HeLa, protein AUP1): 0.83

Nc1nc2[nH]cc(CCc3ccc(C(=O)N[C@@H](CCC(=O)O)C(=O)O)cc3)c2c(=O)[nH]1 [PTX, pemetrexed]
fold changes relative to vehicle control [1]: 0.94
fold changes relative to vehicle control [2]: 1.02
fold changes relative to vehicle control [3]: 0.84
fold changes relative to vehicle control [4]: 0.99
fold changes relative to vehicle control [5]: 1.84
fold changes relative to vehicle control [6]: 0.89

CCCCCCOc1ccc(Cc2cnc(N)nc2N)cc1 [compound 1]
fold changes relative to vehicle control ([1]; protein SEC24B, HeLa): 1.05
fold changes relative to vehicle control ([2]; captured protein RCN1, HeLa): 0.9
fold changes relative to vehicle control ([3]; captured protein FASTKD5, HeLa): 1.07
fold changes relative to vehicle control ([4]; captured protein NUP210, HeLa): 0.74
fold changes relative to vehicle control ([5]; protein ATPIF1, HeLa): 0.97
fold changes relative to vehicle control ([6]; captured protein AUP1, HeLa): 0.98

CCCCCCOc1cccc(Cc2cnc(N)nc2N)c1 [compound 2]
fold changes relative to vehicle control ([1]; protein SEC24B, HeLa): 1.15
fold changes relative to vehicle control ([2]; captured protein RCN1, HeLa): 1.05
fold changes relative to vehicle control ([3]; captured protein FASTKD5, HeLa): 0.94
fold changes relative to vehicle control ([4]; captured protein NUP210, HeLa): 0.98
fold changes relative to vehicle control ([5]; protein ATPIF1, HeLa): 1.32
fold changes relative to vehicle control ([6]; captured protein AUP1, HeLa): 1.25

Nc1nc2cccc(-c3ccccc3)c2n1Cc1ccc(Cl)c(Cl)c1 [compound 3]
fold changes relative to vehicle control ([1]; protein SEC24B, HeLa): 1.01
fold changes relative to vehicle control ([2]; captured protein RCN1, HeLa): 0.89
fold changes relative to vehicle control ([3]; captured protein FASTKD5, HeLa): 1.06
fold changes relative to vehicle control ([4]; captured protein NUP210, HeLa): 0.86
fold changes relative to vehicle control ([5]; protein ATPIF1, HeLa): 0.91
fold changes relative to vehicle control ([6]; captured protein AUP1, HeLa): 0.9

NCCOCCOCC(=O)Nc1nc2ncc(CNc3ccc(C(=O)NC(CCC(=O)O)C(=O)O)cc3)nc2c(=O)[nH]1 (stereo not drawn) [compound 6]
fold changes relative to vehicle control ([1]; HeLa, captured protein SEC24B): 0.94
fold changes relative to vehicle control ([2]; HeLa, protein RCN1): 1.11
fold changes relative to vehicle control ([3]; HeLa, protein FASTKD5): 0.88
fold changes relative to vehicle control ([4]; HeLa, captured protein NUP210): 1.07
fold changes relative to vehicle control ([5]; HeLa, protein ATPIF1): 1.91
fold changes relative to vehicle control ([6]; HeLa, protein AUP1): 0.92

NCCCNc1ccc(C(=O)NC(CCC(=O)O)C(=O)O)cc1 (stereo not drawn) [compound 7]
fold changes relative to vehicle control ([1]; HeLa, captured protein SEC24B): 1.06
fold changes relative to vehicle control ([2]; HeLa, protein RCN1): 1.02
fold changes relative to vehicle control ([3]; HeLa, protein FASTKD5): 0.97
fold changes relative to vehicle control ([4]; HeLa, captured protein NUP210): 1.05
fold changes relative to vehicle control ([5]; HeLa, protein ATPIF1): 1.41
fold changes relative to vehicle control ([6]; HeLa, protein AUP1): 0.9
